Experimental data from ChEMBL document CHEMBL1153253, “Imidazolinones as nonpeptide angiotensin II receptor antagonists” (Bioorg Med Chem Lett, 1994).

What was measured:
[1] = tested on: Rattus norvegicus; test: Effective dose required to lower blood pressure by 30 mm Hg in renal hypertensive rats following intravenous administration; format: functional
[2] = biological target: T1, Type-1 angiotensin II receptor A (Rattus norvegicus, UniProt P25095); test: Displacement of [125I]- Ang II from type 1 Angiotensin II receptor
T1 sequence (P25095 whole entry): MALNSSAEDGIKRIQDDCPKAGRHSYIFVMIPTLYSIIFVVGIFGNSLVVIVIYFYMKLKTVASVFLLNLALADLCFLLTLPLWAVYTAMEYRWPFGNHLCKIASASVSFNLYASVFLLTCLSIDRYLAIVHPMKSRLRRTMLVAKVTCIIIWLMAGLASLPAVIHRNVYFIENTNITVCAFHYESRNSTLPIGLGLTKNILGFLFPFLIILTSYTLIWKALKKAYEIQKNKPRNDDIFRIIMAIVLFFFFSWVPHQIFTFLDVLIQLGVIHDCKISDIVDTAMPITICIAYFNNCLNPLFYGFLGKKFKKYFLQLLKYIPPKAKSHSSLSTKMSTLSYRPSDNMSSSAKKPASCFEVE

[3] = biological target: T2, Type-2 angiotensin II receptor (Homo sapiens, UniProt P50052); test: The compound was tested for the ability to displace 50% of totally specifically bound [125I]- Ang II from Angiotensin II receptor, type 2
T2 sequence (P50052 whole entry): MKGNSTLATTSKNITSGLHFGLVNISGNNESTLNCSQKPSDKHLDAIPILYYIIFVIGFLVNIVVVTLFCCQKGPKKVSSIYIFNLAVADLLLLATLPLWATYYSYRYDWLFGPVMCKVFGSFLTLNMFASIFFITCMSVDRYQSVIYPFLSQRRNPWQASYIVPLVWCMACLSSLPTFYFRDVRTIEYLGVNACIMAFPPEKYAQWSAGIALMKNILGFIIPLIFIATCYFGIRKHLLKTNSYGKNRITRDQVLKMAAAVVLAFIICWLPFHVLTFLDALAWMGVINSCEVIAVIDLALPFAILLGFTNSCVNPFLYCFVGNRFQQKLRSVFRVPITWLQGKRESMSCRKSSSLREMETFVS

[4] = biological target: T3, Type-1 angiotensin II receptor (Homo sapiens, UniProt P30556); test: The compound was tested for the ability to displace 50% of totally specifically bound [125I]- Ang II from Angiotensin II receptor, type 1 site
T3 sequence (P30556 whole entry): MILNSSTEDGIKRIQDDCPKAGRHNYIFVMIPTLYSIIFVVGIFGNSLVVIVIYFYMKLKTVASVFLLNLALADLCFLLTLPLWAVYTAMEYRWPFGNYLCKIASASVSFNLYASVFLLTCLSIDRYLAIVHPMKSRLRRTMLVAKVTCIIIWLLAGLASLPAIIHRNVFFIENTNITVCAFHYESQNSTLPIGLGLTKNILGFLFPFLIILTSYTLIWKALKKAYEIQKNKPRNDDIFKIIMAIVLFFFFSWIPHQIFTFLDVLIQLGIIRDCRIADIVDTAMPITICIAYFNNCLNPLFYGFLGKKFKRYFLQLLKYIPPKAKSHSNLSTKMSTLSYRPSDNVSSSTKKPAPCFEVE

Row | IC50 [2] [nM] | IC50 [3] [nM] | IC50 [4] [nM] | Compound | ED30 [1] [mg/kg]
1 | 3 |  |  | CCCC1=NC2(CCCCC2)C(=O)N1Cc1ccc(-c2ccccc2-c2nnn[nH]2)cc1 | 0.25
2 | 1 | 100 |  | CCCCC1=NC2(CCCC2)C(=O)N1Cc1ccc(-c2ccccc2S(=O)(=O)NC(=O)c2ccccc2)cc1 | 0.29
3 | 3 |  |  | CCCC1=NC2(CC2)C(=O)N1Cc1ccc(-c2ccccc2-c2nn[nH]n2)cc1 | 0.54
4 | 100 |  |  | CC1=NC(c2ccccc2)(c2ccccc2)C(=O)N1Cc1ccc(-c2ccccc2-c2nnn[nH]2)cc1 | 
5 | 1 | 200 |  | CCCC1=NC2(CCSCC2)C(=O)N1Cc1ccc(-c2ccccc2S(=O)(=O)NC(=O)c2ccccc2)cc1 | 0.29
6 | 1400 |  |  | O=C1N(Cc2ccc(-c3ccccc3-c3nn[nH]n3)cc2)C(c2ccccc2)=NC1(c1ccccc1)c1ccccc1 | 
7 | 8 |  |  | CCCC1=NC2(CCOCC2)C(=O)N1Cc1ccc(-c2ccccc2-c2nn[nH]n2)cc1 | 0.2
8 | 4 |  |  | CCCC1=NC(C)(C)C(=O)N1Cc1ccc(-c2ccccc2-c2nn[nH]n2)cc1 | 0.36
9 | 0.9 |  |  | CCCCC1=NC2(CCCC2)C(=O)N1Cc1ccc(-c2ccccc2-c2nnn[nH]2)cc1 [IRBESARTAN] | 0.16
10 | 300 |  |  | CCCC1=NC(c2ccccc2)(c2ccccc2)C(=O)N1Cc1ccc(-c2ccccc2-c2nn[nH]n2)cc1 | 
11 | 0.9 |  |  | CCCC1=NC2(CCCC2)C(=O)N1Cc1ccc(-c2ccccc2-c2nnn[nH]2)cc1 | 0.32
12 | 9 | 300 |  | CCCC1=NC2(CCCC2)C(=O)N1Cc1ccc(-c2ccccc2S(=O)(=O)NC(=O)c2ccccc2)cc1 | 0.14
13 |  |  | 2 | CCCC1=NC2(CCSCC2)C(=O)N1Cc1ccc(-c2ccccc2-c2nnn[nH]2)cc1 | 0.26
14 | 3 | 200 |  | CCCC1=NC(C)(C)C(=O)N1Cc1ccc(-c2ccccc2S(=O)(=O)NC(=O)c2ccccc2)cc1 | 0.17
15 | 20 |  |  | CCCC1=NC(C(F)(F)F)(C(F)(F)F)C(=O)N1Cc1ccc(-c2ccccc2-c2nn[nH]n2)cc1 | 
